Some test systems named below: NCI-H23 lung; NCI-H460 lung; OVCAR-4 ovarian; HOP-92 NSCLC; SF-539 CNS; RXF 393 renal.
Common to all, as to test: inhibition of tumour cell growth, NCI panel, 48 h

SMILES strings stand for the structures.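 48-hour exposure; five concentrations; linearly interpolated endpoints. The concentration for full growth arrest is given as TGI.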

For the molecule `COc1ccc(C2c3cn[nH]c3CC3CCCCC32)cc1` (stereo not given), the TGI in the test with NCI-H23 lung turned out to be 33.6 µM; in the test with NCI-H460 lung, 30.8 µM; in the test on OVCAR-4 ovarian it was 43.5 µM.

As for `O=C1c2cc(-c3ccccc3)cnc2S(=O)(=O)N1c1ccc(Br)cc1`, the TGI in the test on HOP-92 NSCLC was 72.1 µM; in the test on NCI-H23 lung, above 100 µM; in the test on NCI-H460 lung it was 75 µM; in the test on SF-539 CNS, 87.2 µM.

Turning to `CC(NC(=O)Cc1ccccc1)NC(=O)C(C)C(=O)Nc1ccccc1` (stereo not given), the TGI in the test on RXF 393 renal, in the test on HOP-92 NSCLC, with NCI-H23 lung, in the test on NCI-H460 lung, in the test on SF-539 CNS and in the test with OVCAR-4 ovarian was above 100 µM each time.

With `O=C1OC(C2Cc3ccc4ccccc4c3C2=O)c2ccccc21` (stereo not given), the TGI in the test on RXF 393 renal was 49.5 µM; in the test with HOP-92 NSCLC, above 100 µM; in the test on NCI-H460 lung, above 100 µM; in the test with SF-539 CNS, 56.5 µM; in the test with OVCAR-4 ovarian it was 65.3 µM.

As for `Cn1c(SCc2ccc(F)cc2)nnc1C12CC3CC(CC(C3)C1)C2`, the TGI in the test on RXF 393 renal is above 100 µM; in the test on HOP-92 NSCLC it was 77.1 µM; in the test with NCI-H23 lung, above 100 µM; in the test on NCI-H460 lung it was above 100 µM; with SF-539 CNS it was 65.1 µM; in the test with OVCAR-4 ovarian it was above 100 µM.

As for `COc1ccc(N2C(=O)CC(=O)N(NC(=O)C(C)Oc3ccccc3C)C2=S)cc1` (stereo not given), the TGI in the test with RXF 393 renal, in the test on HOP-92 NSCLC, in the test on NCI-H23 lung, with NCI-H460 lung, with SF-539 CNS and with OVCAR-4 ovarian was above 100 µM each time.

Regarding `COc1ccc(C(=O)/C=C/c2ccc(OCCCOc3ccc(/C=C/C(=O)c4ccc(OC)cc4)cc3)cc2)cc1`, the TGI is above 100 µM in the test with RXF 393 renal, above 100 µM in the test on NCI-H460 lung, 72.6 µM in the test with SF-539 CNS and above 100 µM with OVCAR-4 ovarian.

In the case of `COc1cc(OC)cc(C(=O)CC(=O)c2cc(OC)cc(OC)c2)c1`, the TGI in the test on RXF 393 renal, with HOP-92 NSCLC, in the test on NCI-H23 lung, with NCI-H460 lung and in the test on SF-539 CNS was above 100 µM throughout.

As for `COC(=O)C(Cc1ccc2c(c1)CCC2)Cc1ccc2c(c1)CCC2`, the TGI in the test with RXF 393 renal, in the test with HOP-92 NSCLC, in the test on NCI-H23 lung, with NCI-H460 lung, with SF-539 CNS and with OVCAR-4 ovarian was above 100 µM in each case.

In the case of `O=S(=O)(O)C(CO)c1ccccc1` (stereo not given) (tested in a mixture with another compound), the TGI in the test with RXF 393 renal, with HOP-92 NSCLC, in the test with NCI-H23 lung, in the test on NCI-H460 lung, in the test on SF-539 CNS and in the test on OVCAR-4 ovarian was above 100 µM in each case.

As for `CSC1=N/C(=C\c2ccc(C)cc2)C(=O)N1CN1CCCCC1`, the TGI in the test on HOP-92 NSCLC, in the test with NCI-H23 lung and in the test on OVCAR-4 ovarian was above 100 µM throughout.

For `Clc1ccc(-c2nnc3sc4nc5ccccc5c-4nn23)c(Cl)c1`, the TGI is above 100 µM in the test on RXF 393 renal; 68.8 µM in the test with HOP-92 NSCLC; above 100 µM in the test on NCI-H23 lung; above 100 µM in the test on NCI-H460 lung; above 100 µM in the test on SF-539 CNS; above 100 µM with OVCAR-4 ovarian.

Consider `N#CC(C#N)=C1SC(=Nc2ccccc2)C(=Nc2ccccc2)N1c1ccccc1`, for which the TGI in the test with RXF 393 renal was 45.5 µM; with HOP-92 NSCLC, 15.6 µM; in the test with NCI-H23 lung it was 97.7 µM; in the test on NCI-H460 lung, above 31.6 µM; with SF-539 CNS it was 22.5 µM; with OVCAR-4 ovarian it was 34.8 µM.

Take `O=C(O)CN1CCN2CCCCCN(CC1)CCN(CC(=O)O)CC2`: the TGI in the test on HOP-92 NSCLC, with NCI-H460 lung, in the test on SF-539 CNS and in the test with OVCAR-4 ovarian was above 100 µM throughout.

Take `O=C(NCP(=O)(Oc1ccccc1)Oc1ccccc1)OCc1ccccc1`: the TGI with HOP-92 NSCLC, with NCI-H23 lung, with NCI-H460 lung and in the test with OVCAR-4 ovarian was above 100 µM each time.

As for `CC(=NNC(=S)Nc1ccccc1)c1cccc(C(C)=NNC(=S)Nc2ccccc2)n1`, the TGI in the test on RXF 393 renal was 36.6 µM; in the test with HOP-92 NSCLC, above 50.2 µM; with NCI-H23 lung, above 100 µM; with NCI-H460 lung, above 56.8 µM; with SF-539 CNS it was 12.5 µM; with OVCAR-4 ovarian, above 100 µM.

In the case of `COc1cc2c(cc1OC)C1C3CCCCC3CCN1CC2` (stereo not given), the TGI in the test with RXF 393 renal, in the test on HOP-92 NSCLC, with NCI-H23 lung, with NCI-H460 lung, in the test on SF-539 CNS and in the test on OVCAR-4 ovarian was above 100 µM each time.

Regarding `C/C(C[n+]1ccccc1)=N\N=C(N)N`, the TGI in the test on RXF 393 renal, with HOP-92 NSCLC, with NCI-H23 lung, in the test on NCI-H460 lung and with OVCAR-4 ovarian was above 100 µM each time.

With `O=C(O)c1ccccc1CC(Cc1ccc2c(c1)CCC2)C(=O)O` (stereo not given), the TGI in the test on RXF 393 renal, in the test on HOP-92 NSCLC, in the test on NCI-H23 lung, with NCI-H460 lung, with SF-539 CNS and with OVCAR-4 ovarian was above 100 µM in each case.

In the case of `O=C1NC2c3c(I)sc(I)c3C(O)C2O1` (stereo not given), the TGI in the test with RXF 393 renal, in the test with HOP-92 NSCLC, in the test with NCI-H23 lung, in the test on NCI-H460 lung, in the test with SF-539 CNS and with OVCAR-4 ovarian was above 100 µM throughout.

Consider `Cc1nn(-c2ccccc2)c2c1C(c1cc3ccccc3nc1Cl)NC(=O)N2` (stereo not given), for which the TGI is 55.9 µM in the test with RXF 393 renal; 32.1 µM in the test on HOP-92 NSCLC; 37.6 µM in the test on NCI-H23 lung; above 100 µM with NCI-H460 lung; 45.9 µM with SF-539 CNS; above 100 µM with OVCAR-4 ovarian.

As to `CC1=CCC([C@@](C)(O)CCCC(C)(C)N=C=S)CC1` (stereo not given in full), the TGI came to 29.6 µM with RXF 393 renal; 33.1 µM with HOP-92 NSCLC; 38.5 µM with NCI-H23 lung; 33 µM in the test with NCI-H460 lung; 33.3 µM in the test with SF-539 CNS; 30.9 µM with OVCAR-4 ovarian.

These data come from PubChem BioAssay (NCI).
